Reference: article PMC7397466, “Expression, purification and crystal structure determination of a ferredoxin reductase from the actinobacterium Thermobifida fusca” (Acta Crystallographica. Section F, Structural Biology …, 2020)

Molecular target: T1, FdR9 (Thermobifida fusca, UniProt Q47QF8)
T1 construct: gene Tfu_1273
Assay: X-ray crystal structure, […] Å
Assay type: binding
Conditions: copurified cofactor; crystals at pH 6.5, 298 K

T1 sequence (Q47QF8 entry or part of it): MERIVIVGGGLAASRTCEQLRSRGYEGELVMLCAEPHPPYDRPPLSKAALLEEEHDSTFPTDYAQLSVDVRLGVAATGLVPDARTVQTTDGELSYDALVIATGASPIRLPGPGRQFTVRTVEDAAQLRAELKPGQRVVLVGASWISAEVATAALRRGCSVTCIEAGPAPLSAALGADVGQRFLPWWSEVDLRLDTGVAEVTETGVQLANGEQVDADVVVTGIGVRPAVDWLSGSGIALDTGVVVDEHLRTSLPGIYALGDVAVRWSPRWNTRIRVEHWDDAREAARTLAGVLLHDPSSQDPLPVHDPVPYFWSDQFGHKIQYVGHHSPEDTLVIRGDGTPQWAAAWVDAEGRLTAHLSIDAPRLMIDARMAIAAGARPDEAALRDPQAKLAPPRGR

## Cc1cc2nc3c(=O)[nH]c(=O)nc-3n(C[C@H](O)[C@H](O)[C@H](O)COP(=O)(O)OP(=O)(O)OC[C@H]3O[C@@H](n4cnc5c(N)ncnc54)[C@H](O)[C@@H]3O)c2cc1C [FAD]
  X-ray crystal structure, 1.9 Å: The resulting electron-density map allowed the identification of the FAD molecule bound to the reductase
